The test system of data set [1] is adult fruit fly (D. melanogaster). The data set can be described thus: Method A: topical treatment of adult fruit fly. The format is in vivo, Drosophila melanogaster. The settings on record: for LD50: Method A, topical 0.2 μL acetone solution, adult fruit flies, 24 hour mortalities, probit regression; for activity against adult fruit flies (in words): topical treatment, from LD50 values. The method, then:
Topical Treatment of Adult Fruit Fly (D. melanogaster)
A culture of fruit flies (D. melanogaster) was used in the production of adult flies (approx 0.22 mg) of about seven days.
Serial dilutions of the compounds were prepared in acetone, and volumes of approximately 0.2 μL were applied to the ventral surface of each insect, using a calibrated PAX 100 microapplicator and a 1 mL syringe.
The fruit flies, in groups of 5, were anaesthetised using carbon dioxide. Prior to recovery the flies were placed in a containing vial and kept at 30±1° C., for observations of mortality at 1, 2, 3 and 24 hours after treatment.
For this purpose solutions of 6 different concentrations and a control were employed in groups of 12 and 20 insects. Control mortalities were normally zero but occasionally rose to 5-10%.
(§1) Dosages used in insect treatments were based upon the amount of compound applied to each insect. For the shrimps the final concentrations of the compounds in the immersion brine were used.
(§2) The 24 hour mortalities were used to calculate the LD50/LC50 using regression analysis of the probability percent mortality (probit) against log dose/concentration.^30 This was calculated using PoloPC software (LeOra Software, Berkeley, Calif., 1994).
In the table are also given the confidence intervals at 95% for the LD50 values, the number of organisms tested, the slope obtained by linear regression and the index g (of significance). Data are considered satisfactory if g is substantially less than 1 and seldom greater than 0.4.^31
As regards the confidence intervals for LD50, the indication (90%) means that the intervals were calculated at 90% and not at 95%.

Data set [2] has as its system brine shrimp A. salina larvae. The data set is described as follows: Method F: immersion bioassay of brine shrimp larvae in brine. The class given is in vivo. Conditions: brine shrimp larvae immersed in brine, 24 hour mortalities. As to the method: (§3) Immersion Bioassay of Brine Shrimp A. salina Larvae in Brine
(§4) Freshly hatched brine shrimps were prepared by adding aquarium brine shrimp eggs to salt water (15 g sea salt per litre water). The following day hatchlings were separated from eggs and empty egg cases, using their phototropic movement and a Pasteur pipette.
(§5) Into each of a set of small glass vials was pipetted 195 μL of brine containing 5 shrimp larvae, using a micropipette. The solution of the test compound in 5 μL acetone was added, the vial closed and kept at 30±1° C. for observation.
(§6) Dead and alive shrimps were counted, at 1 and 24 hours after treatment, using a microscope. Six concentrations and a control were used with 10 shrimps treated.
(§7) A blank test was performed for comparison of the results.
as §1, §2

For a further data set, the system named is adult fruit flies. The data set is described as follows: Method B: second method for topical treatment of adult fruit flies. Conditions: topical 1 μL acetone solution, 24 hour mortalities. The class given is in vivo, Drosophila melanogaster. As to the method: Second Method for Topical Treatment of Adult Fruit Flies
Different dilutions of the compounds in acetone were prepared and applied to individual fruit flies using a Gilson piston micropipette.
Individual flies were held in padded forceps and 1 μL of acetone solution was applied. The acetone was allowed to evaporate before placing the fly into the vial for observation, kept at 30±1° C., following the standard methodology.
as §1, §2

Data set [3] concerns glasshouse white fly (T. vaporariorum). The data set can be described thus: Method G: foliar treatment of glasshouse white fly on tomato leaves. The settings on record: for % Control of White Fly: sprayed on infested tomato leaves, 14 hours; for insecticidal efficacy against adult white fly (in words): spraying infested tomato leaves. The format is in vivo, Trialeurodes vaporariorum. The method, then: Method G Foliar Treatment of Glasshouse White Fly (T. vaporariorum) Seedlings of tomato plants were infested with adult white fly. Selected leaves of the tomato plants were excised and carefully trimmed to 3 leaflets without disturbing the infestation. These were placed in glass tubes containing water and the leaflets were then sprayed on both sides with a small sprayer delivering for each one 200 μL of a solution of the test compound dissolved in 30% acetone in water. Controls were sprayed with the solvent alone. Counts of insects on the individual leaflets were made immediately after spraying and then at 14 hours following. Where single dose treatments were used (in the case of whitefly assays), no statistics are available and the results are expressed as percent effect. Five compounds were tested, which were applied spraying 600 μL of each compound solution (prepared according to method G) on of leaves of tomato plants infested with a known number of adult whitefly. After 14 hours, the number of dead insects (or eventually of insects that disappeared) was counted. These assays were performed at room temperature, between 20 and 25° C.

In data set [4] the test system is house fly adults (M. domestica). The data set can be described thus: Method E: topical treatment of house fly adults. The settings on record: topical 1 μL acetone solution, adult house flies, strain Cooper. The class given is in vivo, Musca domestica. As to the method: Topical Treatment of House Fly Adults (M. domestica)
A culture of an insecticide-susceptible strain, Cooper, was established. Three-day-old adult house flies (body weight about […]) were anaesthetised with carbon dioxide. Using the PAX microapplicator, a volume of 1 μL of acetone solution of the test compounds was applied to the dorsal cuticle, holding the fly in padded forceps.
Groups of flies were placed into closed vials, kept at 30±1° C., for observation.
as §1, §2

In a further data set the test system is fruit fly larvae. The data set can be described thus: Method D: topical treatment of fruit fly larvae. The settings on record: for LD50: Method D, topical 0.2 μL acetone solution, second and third instar fruit fly larvae; for toxicity to fruit fly larvae compared with adult flies (in words): topical treatment of larvae, from LD50 values. The format is in vivo, Drosophila melanogaster. As to the method:
Topical Treatment of Fruit Fly Larvae
Fruit fly larvae were separated from the growing medium and second and third instars were topically treated with 0.2 μL acetone solutions of the compounds using a PAX microapplicator.
Larvae were held in padded forceps for dosing and then placed on moistened filter paper, at 30±1° C., for observation.
as §1, §2

The nature of data set [5]: Method F: immersion bioassay of brine shrimp larvae in brine. The format is in vivo. Conditions: Artemia salina (brine shrimp) larvae, in vivo, brine shrimp larvae immersed in brine, 24 hour mortalities. As to the method:
as §3, §4, §5, §6, §7, §1, §2

≈ marks a conversion by molar mass, not a printed value. Entries after “also recorded” stand apart in the source; their conditions may differ.

As usually defined, the LC50 is the concentration that kills 50% of the test population. As for `CC1=C[C@H]([C@H]2O[C@@H]3OC(C)(C)O[C@@H]3[C@H]2OCc2ccccc2)OC1=O` [Compound 1, 3-O-benzyl-6,7-dideoxy-1,2-O-isopropylidene-7-methyl-α-D-gluco-oct-6-enefuranurono-8,5-lactone], in data set [1], the LD50 is reported as 0.00002 μg/insect and the “activity against adult fruit flies (in words)” value (from here on “activity”) was “extremely active”. Besides, the LC50 in data set [2] was found to be 100.62 mg/L (≈ 290 µM).
As for `CC1=C[C@H]([C@H]2O[C@@H]3OC(C)(C)O[C@@H]3[C@@H]2OCc2ccccc2)OC1=O` [Compound 2, 3-O-benzyl-6,7-dideoxy-1,2-O-isopropylidene-7-methyl-α-D-alo-oct-6-enefuranurono-8,5-lactone], the LD50 is listed as 0.00398 μg/insect in the data set with adult fruit flies and 2.27 × 10^−6 μg/insect in data set [1]. The “activity” value in data set [1] is listed as “extremely active”. The molecule also showed an LC50 in data set [2] of 64.30 mg/L (≈ 186 µM).
`CC1(C)O[C@H]2O[C@H]([C@H]3C=CC(=O)O3)[C@@H](OCc3ccccc3)[C@H]2O1` [Compound 3, 3-O-benzyl-6,7-dideoxy-1,2-O-isopropylidene-α-D-alo-oct-6-enefuranurono-8,5-lactone]: in data set [1], the LD50 is on record as 5.02 × 10^−6 μg/insect and the “activity” value is “extremely active”. Besides, the LC50 in data set [2] was found to be 144.71 mg/L (≈ 435 µM). In addition, in data set [3] (concentration 1.3 μg/mL), the “% Control of White Fly” value is reported as 0%.
For the molecule `CC1(C)O[C@H]2O[C@H]([C@H]3C=CC(=O)O3)[C@H](OCc3ccccc3)[C@H]2O1` [Compound 4, 3-O-benzyl-6,7-dideoxy-1,2-O-isopropylidene-α-D-gluco-oct-6-enefuranurono-8,5-lactone], in data set [1], the LD50 was found to be 0.00012 μg/insect and the “activity” value was “high toxicity against adult fruit flies”. In addition, the LC50 in data set [2] amounted to 358.92 mg/L (≈ 1080 µM). For the same molecule, in data set [3] (concentration 2.5 μg/mL), the “% Control of White Fly” value worked out at 50%. Also, the “insecticidal efficacy against adult white fly (in words)” value in data set [3] is given as “show efficacy as insecticides; also recorded: promising for activity against the white fly”.
Take `CC(=O)OC[C@H]1OC(=O)C(Br)=C[C@@H]1OC(C)=O` [Compound 5, 4,6-di-O-acetyl-2-bromo-2,3-dideoxy-D-erythro-hex-2-enone-1,5-lactone]: the values for the LD50 (in data set [1]; in data set [4]; in the data set on fruit fly larvae) were 0.00016 μg/insect, 1.065 μg/insect and 4.75 μg/insect, respectively. The LC50 in data set [2] was determined as 38.36 mg/L (≈ 125 µM). In addition, the “toxicity to fruit fly larvae compared with adult flies (in words)” value with fruit fly larvae was “less toxic for larvae than for adult flies”.
For `CC1(C)OC2OC(C3CC(C)([Se]c4ccccc4)C(=O)O3)C(OCc3ccccc3)C2O1` [Compound 8, (7R)-/(7S)-3-O-Benzyl-6,7-dideoxy-1,2-O-isopropylidene-7-methyl-7-phenylselenyl-α-D-gluco-octofuranurono-8,5-lactone], the figures for the LD50 in data set [1] and in data set [4] were 0.00037 μg/insect and 0.644 μg/insect, respectively. This molecule also yielded an LC50 in data set [2] of 220.41 mg/L (≈ 438 µM). In the data set with fruit fly larvae, the “toxicity to fruit fly larvae compared with adult flies (in words)” value was “less toxic for larvae than for adult flies”.
On to `CO[C@H]1O[C@H]([C@@H]2CO2)[C@@H]2O[C@H]12` [Compound 9, Methyl 2,3:5,6-Dianhydro-β-L-gulofuranoside], for which, in data set [1], the LD50 was 0.00003 μg/insect and the “activity” value is “extremely active; also recorded: high toxicity against adult fruit flies”. The same molecule displayed an LC50 in data set [2] of 671.50 mg/L (≈ 4250 µM). Further, the “% Control of White Fly” value in data set [3] (concentration 2.5 μg/mL) is recorded as 85%. In addition, in data set [3], the “insecticidal efficacy against adult white fly (in words)” value is on record as “show efficacy as insecticides; also recorded: promising for activity against the white fly”.
As for `O=[N+]([O-])NC1=NCCN1Cc1ccc(Cl)nc1` [Imidacloprid, imidacloprid, reference compound], the LD50 in data set [1] stood at 0.01253 μg/insect. In data set [5], this molecule registered a median lethal concentration (LC50) at 24 h of 0.0312 mg/L (≈ 0.122 µM).
As to “(7R)-/(7S)-3,6,7-Trideoxy-1,2-O-isopropylidene-7-methyl-7-phenylselenyl-α-D-ribo-octofuranurono-8,5-lactone [Compound 7]”, the LD50 in data set [1] is reported as 0.0002 μg/insect; in the data set with fruit fly larvae it was 0.968 μg/insect. This molecule also registered an LC50 in data set [2] of 261.04 mg/L. In data set [3] (concentration 4.8 μg/mL), the “% Control of White Fly” value came out at 0%.
As for “methyl (7R)-/(7S)-2,3-anhydro-6,7-dideoxy-7-methyl-7-phenylselenyl-α-gulo-octofuranurono-8,5-lactone [Compound 6]”, the LD50 in data set [1] was 0.00015 μg/insect. For the same molecule, the LC50 in data set [2] was found to be 125.48 mg/L. Moreover, the “% Control of White Fly” value in data set [3] (concentration 1.3 μg/mL) turned out to be 0%.

For the origin of these results see patent publication US7622498B2, “Sugar derivatives comprising oxiranes or α, β-unsaturated δ-lactones, process for their preparation and their utilisation as pesticides” (Instituto Politecnico de Santarem/Escoal Superior Agraria, priority 2004, dated 2009).
